Results: patent US9695155B2, “Herbicidal substituted pyrimidinyloxy benzene compounds” (E. I. DU PONT DE NEMOURS AND COMPANY, priority 2013, dated 2017)

How the values were obtained:
[1] = tested on: barnyardgrass; assay: Test A preemergence; assay type: in vivo, Echinochloa crus-galli; settings: for Plant response rating, Barnyardgrass: 31 g ai/ha, 0 to 100 scale where 0 is no effect and 100 is complete control, visual, approximately 10 days; for Barnyardgrass plant response rating (0 to 100 scale, 0 is no effect, 100 is complete control): 125 g ai/ha
Outline: (§1)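 Compounds in non-phytotoxic solvent with surfactant applied as soil spray preemergence, or postemergence to plants 2-10 cm at one- to two-leaf stage, in loam/sand. After approximately 10 days in greenhouse, injury rated visually versus untreated controls, 0 (no effect) to 100 (complete control).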

[2] = tested on: kochia; assay: Test A preemergence; assay type: in vivo, Kochia scoparia; settings: for Plant response rating, Kochia: 31 g ai/ha, 0 to 100 scale where 0 is no effect and 100 is complete control, visual, approximately 10 days; for Kochia plant response rating (0 to 100 scale): 125 g ai/ha
Outline: as §1

[3] = tested on: ragweed; assay: Test A preemergence; assay type: in vivo, Ambrosia elatior; settings: for Plant response rating, Ragweed: 31 g ai/ha, 0 to 100 scale where 0 is no effect and 100 is complete control, visual, approximately 10 days; for Ragweed plant response rating (0 to 100 scale): 125 g ai/ha
Outline: as §1

[4] = tested on: Italian ryegrass; assay: Test A preemergence; assay type: in vivo, Lolium multiflorum; settings: for Plant response rating, Ryegrass, Italian: 31 g ai/ha, 0 to 100 scale where 0 is no effect and 100 is complete control, visual, approximately 10 days; for Ryegrass, Italian plant response rating (0 to 100 scale): 125 g ai/ha
Outline: as §1

[5] = tested on: giant foxtail; assay: Test A preemergence; assay type: in vivo, Setaria faberii; settings: for Plant response rating, Foxtail, Giant: 31 g ai/ha, 0 to 100 scale where 0 is no effect and 100 is complete control, visual, approximately 10 days; for Foxtail, Giant plant response rating (0 to 100 scale): 125 g ai/ha
Outline: as §1

[6] = tested on: pigweed; assay: Test A preemergence; assay type: in vivo, Amaranthus retroflexus; settings: for Plant response rating, Pigweed: 31 g ai/ha, 0 to 100 scale where 0 is no effect and 100 is complete control, visual, approximately 10 days; for Pigweed plant response rating (0 to 100 scale): 125 g ai/ha
Outline: as §1

[7] = tested on: barnyardgrass; assay: Test A postemergence; assay type: in vivo, Echinochloa crus-galli; settings: 0 to 100 scale, 0 no effect, 100 complete control
Outline: as §1

[8] = tested on: kochia; assay: Test A postemergence; assay type: in vivo, Kochia scoparia; settings: 0 to 100 scale, 0 no effect, 100 complete control
Outline: as §1

[9] = tested on: ragweed; assay: Test A postemergence; assay type: in vivo, Ambrosia elatior; settings: 0 to 100 scale, 0 no effect, 100 complete control
Outline: as §1

[10] = tested on: Italian ryegrass; assay: Test A postemergence; assay type: in vivo, Lolium multiflorum; settings: 0 to 100 scale, 0 no effect, 100 complete control
Outline: as §1

[11] = tested on: giant foxtail; assay: Test A postemergence; assay type: in vivo, Setaria faberii; settings: 0 to 100 scale, 0 no effect, 100 complete control
Outline: as §1

[12] = tested on: pigweed; assay: Test A postemergence; assay type: in vivo, Amaranthus retroflexus; settings: 0 to 100 scale, 0 no effect, 100 complete control
Outline: as §1

[13] = tested on: wheat; assay: Test A postemergence; assay type: in vivo, Triticum aestivum; settings: 0 to 100 scale, 0 no effect, 100 complete control
Outline: as §1

[14] = tested on: corn; assay: Test A postemergence; assay type: in vivo, Zea mays; settings: 0 to 100 scale, 0 no effect, 100 complete control
Outline: as §1

[15] = tested on: blackgrass; assay: Test A postemergence; assay type: in vivo, Alopecurus myosuroides; settings: 0 to 100 scale, 0 no effect, 100 complete control
Outline: as §1

[16] = tested on: galium; assay: Test A postemergence; assay type: in vivo, Galium aparine; settings: 0 to 100 scale, 0 no effect, 100 complete control
Outline: as §1

[17] = tested on: rice; assay: Test B flooded paddy test; assay type: in vivo, Oryza sativa; settings: Flood, 250 g ai/ha; 0 to 100 scale where 0 is no effect and 100 is complete control
Outline: (§2)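 Plants were grown to the 2-leaf stage, then pots were flooded to 3 cm above the soil and compounds were applied directly into the paddy water. That depth was held throughout, and after 13 to 15 days in the greenhouse injury was rated visually against controls on a 0–100 scale (0 no effect, 100 complete control).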

[18] = tested on: sedge, umbrella; assay: Test B flooded paddy test; assay type: in vivo, Cyperus difformis; settings: Flood, 250 g ai/ha; 0 to 100 scale where 0 is no effect and 100 is complete control
Outline: as §2

[19] = tested on: Heteranthera limosa; assay: Test B flooded paddy test; assay type: in vivo; settings: Flood, 250 g ai/ha; 0 to 100 scale where 0 is no effect and 100 is complete control
Outline: as §2

[20] = tested on: barnyardgrass; assay: Test B flooded paddy test; assay type: in vivo, Echinochloa crus-galli; settings: Flood, 250 g ai/ha; 0 to 100 scale where 0 is no effect and 100 is complete control
Outline: as §2

Row | Structure (SMILES) | Plant response rating, Barnyardgrass [1] | Barnyardgrass plant response rating (0 to 100 scale, 0 is no effect, 100 is complete control) [1] | Plant response rating, Kochia [2] | Kochia plant response rating (0 to 100 scale) [2] | Plant response rating, Ragweed [3] | Ragweed plant response rating (0 to 100 scale) [3] | Plant response rating, Ryegrass, Italian [4] | Ryegrass, Italian plant response rating (0 to 100 scale) [4] | Plant response rating, Foxtail, Giant [5] | Foxtail, Giant plant response rating (0 to 100 scale) [5] | Plant response rating, Pigweed [6] | Pigweed plant response rating (0 to 100 scale) [6] | Plant response rating, Barnyardgrass ([7]; 31 g ai/ha) | Plant response rating, Barnyardgrass ([7]; 125 g ai/ha) | Plant response rating, Kochia ([8]; 31 g ai/ha) | Plant response rating, Kochia ([8]; 125 g ai/ha) | Plant response rating, Ragweed ([9]; 31 g ai/ha) | Plant response rating, Ragweed ([9]; 125 g ai/ha) | Plant response rating, Ryegrass, Italian ([10]; 31 g ai/ha) | Plant response rating, Ryegrass, Italian ([10]; 125 g ai/ha) | further results
1 | FC(F)c1cccc(Oc2ncc(Cl)cn2)c1-n1cncc1Br [Compound 259] | 10 | 70 | 20 | 80 | 10 | 70 | 0 | 0 | 30 | 100 | 70 | 100 | 0 | 30 | 60 | 80 | 50 | 70 | 0 | 10 | Plant response rating, Foxtail, Giant ([11]; 31 g ai/ha): 10; Plant response rating, Foxtail, Giant ([11]; 125 g ai/ha): 40; Plant response rating, Pigweed ([12]; 31 g ai/ha): 70; Plant response rating, Pigweed ([12]; 125 g ai/ha): 90; Plant response rating, Wheat ([13]; 31 g ai/ha): 0; Plant response rating, Wheat ([13]; 125 g ai/ha): 0; Plant response rating, Corn ([14]; 31 g ai/ha): 0; Plant response rating, Corn ([14]; 125 g ai/ha): 10; Plant response rating, Blackgrass ([15]; 31 g ai/ha): 20; Plant response rating, Blackgrass ([15]; 125 g ai/ha): 50; Plant response rating, Galium ([16]; 31 g ai/ha): 70; Plant response rating, Galium ([16]; 125 g ai/ha): 80; Plant response rating, Rice [17]: 0; Plant response rating, Sedge, Umbrella [18]: 75; Plant response rating, Ducksalad [19]: 70; Plant response rating, Barnyardgrass [20]: 0
2 | N#Cc1cccc(Oc2ncc(Cl)cn2)c1-n1ccnc1 [Compound 261] | 0 | 0 | 0 | 0 | 0 | 0 | 0 | 0 | 0 | 0 | 0 | 0 | 0 | 0 | 50 | 70 | 20 | 30 | 0 | 0 | Plant response rating, Foxtail, Giant ([11]; 31 g ai/ha): 0; Plant response rating, Foxtail, Giant ([11]; 125 g ai/ha): 10; Plant response rating, Pigweed ([12]; 31 g ai/ha): 30; Plant response rating, Pigweed ([12]; 125 g ai/ha): 60; Plant response rating, Wheat ([13]; 31 g ai/ha): 0; Plant response rating, Wheat ([13]; 125 g ai/ha): 0; Plant response rating, Corn ([14]; 31 g ai/ha): 0; Plant response rating, Corn ([14]; 125 g ai/ha): 0; Plant response rating, Blackgrass ([15]; 31 g ai/ha): 0; Plant response rating, Blackgrass ([15]; 125 g ai/ha): 0; Plant response rating, Galium ([16]; 31 g ai/ha): 30; Plant response rating, Galium ([16]; 125 g ai/ha): 50; Plant response rating, Rice [17]: 0; Plant response rating, Sedge, Umbrella [18]: 0; Plant response rating, Ducksalad [19]: 0; Plant response rating, Barnyardgrass [20]: 0
